Several values for one entry are separate records, joined by “and”; a condition that tells them apart may be missing. Identical values can stand only once. Entries after “also recorded” stand apart in the source; their conditions may differ. Where no end group is shown, it is not given here.
Key:
[1] = tested on: full-length Notch1-expressing 32D cells; experiment: G-CSF-induced granulocytic differentiation of full-length Notch1-expressing 32D myeloid progenitor clones in the presence of hJAGGED1 peptides; type: cell-based, mouse; details: 10 μM peptide, 20 ng/ml G-CSF, FIG. 4
Experimental: The ability of the hJAGGED1 HS-27a human stromal cell line to effect differentiation of hematopoietic progenitors was analyzed using the interleukin-3 (IL-3)-dependent myeloid cell line, 32D. The 32D cell line, which was derived from normal mouse bone marrow, is a heterogeneous cell line with individual cells having characteristics of myeloid cells at various early stages of maturation. 32D cells proliferate as undifferentiated blasts in the presence of IL-3, but differentiate into mature granulocytes when stimulated with granulocyte colony stimulating factor (G-CSF; Valtieri et al. Immunol. 138:3829-3835 (1987), which is incorporated herein by reference), thereby providing a system for analyzing factors that may affect myeloid differentiation.
The HS-27a, HS-23 and HS-5 human stromal cell lines were maintained in RPMI containing 10% FCS as described in Roecklein and Torok-Storb, supra, 1995. 32D cells were maintained in Iscove's Modified Dulbecco's Medium (IMDM) with 10% fetal bovine serum (FBS) and 10% WCM as a source of IL-3. For differentiation experiments, 32D cell lines were harvested in log phase, washed, counted, and replated at constant density (2×10^5 cells/ml, 4 ml/well) in 6-well plates in IMDM, 10% FBS, 0.5% WCM and 20 ng/ml recombinant human G-CSF from Amgen (Thousand Oaks, Calif.). Aliquots of […] were removed daily for analysis and replaced with fresh media. Viable cells were counted, and Wright stained cytospins were evaluated for granulocytic differentiation as follows. […] Criteria for granulocytic differentiation included nuclear segmentation, an increased cytoplasmic to nuclear ratio, and increased eosinophilia and granularity of the cytoplasm. […]
Three peptides corresponding to different regions of the hJAGGED1 molecule were analyzed for their effect on differentiation of Notch1-expressing 32D cells treated with G-CSF. […]
Peptide SEQ ID NO:9 (“J-A”) has the sequence […]. […] Differentiation of 32D cells in the presence of hJAGGED peptides was analyzed as described above. […]

[2] = tested on: mouse hematopoietic progenitor cells (Sca-1+ lin-); experiment: Number of G-CFU formed from mouse hematopoietic progenitor cells treated with G-CSF and cell culture supernatant; type: cell-based; details: for Number of CFU-G-CSF, Average: average of samples 1-4, control BHK supernatant about 60
Experimental: A soluble fragment of hJAGGED1 (SEQ ID NO:7), which contains the extracellular domain of hJAGGED1 including the signal peptide, DSL region, EGF-like repeats and cysteine-rich region, was prepared by amplifying a portion of the hJAGGED1 cDNA with PCR primers 420 (SEQ ID NO:20; […]) and 421 (SEQ ID NO:21; […]). The hJAGGED1 cDNA fragment, corresponding to residues 1 to 1010, was subcloned into expression vector pDX to generate pDX-hJg1.Ex. After transfection into BHK and COS cells, the cell culture supernatant was assayed for the ability to effect the number of G-CFU formed from mouse hematopoietic progenitor cells ([…] lin^−), which were prepared by removing cells that stained with anti-Gr-1, anti-CD4, anti-CD11b, anti-CD2, anti-CD45R and anti-Ter-119 and then positively selecting Sca-1^+ cells with anti-Sca-1.

Row | Substance | differentiation of full-length Notch1-expressing 32D clones in the presence of G-CSF and peptide [1] | Number of CFU-G-CSF, Average ([2]; Sca-1+ lin- cells treated with G-CSF, listed as Supernatant of BHK cells transfected with pDX-hJg1.Ex) | Number of CFU-G-CSF, Average ([2]; Sca-1+ lin- cells treated with G-CSF, listed as supernatant from BHK cells transfected with the hJAGGED1 extracellular domain co) | granulocytic differentiation of mouse hematopoietic progenitor cells ([2]; conclusion from Table 2) | Number of CFU-G-CSF ([2]; individual samples, Sca-1+ lin- cells treated with G-CSF, BHK cell supernatant, listed as Supernatant of BHK cells transfected with pDX-hJg1.Ex)
1 | CDDYYYGFGCNKFCRPR (cysteine pairing not given here) [peptide SEQ ID NO:9, 17-mer, residues 188 to 204 of hJAGGED1, portion of the DSL domain] | significantly inhibited | – | – | – | –
2 | CRQGCSPKHGSCKLPGDCRCQYG [peptide SEQ ID NO:10, residues 235 to 257 of hJAGGED1, part of EGF-repeat 1 in the extracellular domain] | comparable to that observed with G-CSF alone; also recorded: unaffected | – | – | – | –
3 | KRRKPGSHTHSASEDNTTN [peptide SEQ ID NO:11, residues 1096 to 1114 of hJAGGED1, hydrophilic portion of the intracellular domain] | comparable to that observed with G-CSF alone; also recorded: unaffected | – | – | – | –
4 | hJAGGED1 fragment SEQ ID NO:7: soluble fragment of hJAGGED1, residues 1 to 1010 (extracellular domain), tested as supernatant of transfected BHK cells | – | 24 | about 24 | inhibits granulocytic differentiation | 19 and 34 and 20 and 23
